Results on 47 compounds are retold here after ChEMBL document CHEMBL5241054, “Effective anti-aromatase therapy to battle against estrogen-mediated breast cancer: Comparative SAR/QSAR assessment on steroidal aromatase inhibitors” (Eur J Med Chem, 2020).

The target in this assay is T1, Aromatase (Homo sapiens, UniProt P11511).
T1 sequence (P11511 whole entry): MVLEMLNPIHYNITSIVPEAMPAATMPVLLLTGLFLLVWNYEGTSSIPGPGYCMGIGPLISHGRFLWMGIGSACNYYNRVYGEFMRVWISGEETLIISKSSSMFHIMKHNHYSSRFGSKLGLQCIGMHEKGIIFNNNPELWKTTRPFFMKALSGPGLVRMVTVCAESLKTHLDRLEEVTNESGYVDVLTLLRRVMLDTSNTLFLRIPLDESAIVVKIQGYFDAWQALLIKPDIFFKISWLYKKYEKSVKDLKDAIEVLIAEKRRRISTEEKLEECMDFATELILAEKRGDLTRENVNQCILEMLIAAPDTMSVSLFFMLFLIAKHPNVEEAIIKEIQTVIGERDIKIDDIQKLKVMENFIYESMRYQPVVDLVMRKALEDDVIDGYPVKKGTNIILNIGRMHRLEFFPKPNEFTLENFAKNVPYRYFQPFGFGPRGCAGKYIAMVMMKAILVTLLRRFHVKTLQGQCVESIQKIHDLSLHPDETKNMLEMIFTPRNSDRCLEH
As usually defined, the IC50 is the concentration at which inhibition is half-maximal. With `C[C@]12C=CC(=O)C=C1C=C[C@@H]1[C@@H]2CC[C@]2(C)C(=O)CC[C@@H]12`, inhibition was half-maximal at 0.45 µM (IC50). In other words, the sub-micromolar range. To `C[C@]12CCC(=O)C=C1C[C@@H](CCc1ccccc1)[C@@H]1[C@@H]2CC[C@]2(C)C(=O)CC[C@@H]12` belongs 0.138 µM; to `C[C@]12CCC(=O)C=C1C[C@@H](Cc1ccccc1)[C@@H]1[C@@H]2CC[C@]2(C)C(=O)CC[C@@H]12`, 0.328 µM. For `CCCCC1=C[C@@H]2[C@H](CC[C@]3(C)C(=O)CC[C@@H]23)[C@@]2(C)C=CC(=O)C=C12` the value was 0.25 µM; for `C[C@]12C=CC(=O)C=C1C(CCc1ccccc1)=C[C@@H]1[C@@H]2CC[C@]2(C)C(=O)CC[C@@H]12`, 0.0729 µM; for `C[C@]12CCC(=O)C=C1[C@@H](CCc1ccccc1)C[C@@H]1[C@@H]2CC[C@]2(C)C(=O)CC[C@@H]12`, 140 µM. In turn, `CCCCCCC1=C[C@@H]2[C@H](CC[C@]3(C)C(=O)CC[C@@H]23)[C@@]2(C)C=CC(=O)C=C12` had an IC50 of 0.155 µM.

The compound `CCCCCCCC1=C[C@@H]2[C@H](CC[C@]3(C)C(=O)CC[C@@H]23)[C@@]2(C)C=CC(=O)C=C12` showed an IC50 of 0.23 µM. This IC50 and that of the compound before are within 1.5-fold of each other. For the compound `C[C@]12CCC(=O)C=C1[C@@H](Cc1ccccc1)C[C@@H]1[C@@H]2CC[C@]2(C)C(=O)CC[C@@H]12`, the IC50 is 0.661 µM. Compound `CCCC1=C[C@@H]2[C@H](CC[C@]3(C)C(=O)CC[C@@H]23)[C@@]2(C)CCC(=O)C=C12` gave an IC50 of 0.315 µM. To `C[C@]12CCC(=O)C=C1[C@H](CCCCc1ccccc1)C[C@@H]1[C@@H]2CC[C@]2(C)C(=O)CC[C@@H]12` belongs 135 µM; to `CCCCCCC1=C[C@@H]2[C@H](CC[C@]3(C)C(=O)CC[C@@H]23)[C@@]2(C)CCC(=O)C=C12`, 0.2 µM; to `CCCCC1=C[C@@H]2[C@H](CC[C@]3(C)C(=O)CC[C@@H]23)[C@@]2(C)CCC(=O)C=C12`, 0.265 µM.

`CCCCCC1=C[C@@H]2[C@H](CC[C@]3(C)C(=O)CC[C@@H]23)[C@@]2(C)C=CC(=O)C=C12` had an IC50 of 0.14 µM.

In turn, `CCC1=C[C@@H]2[C@H](CC[C@]3(C)C(=O)CC[C@@H]23)[C@@]2(C)CCC(=O)C=C12` had an IC50 of 0.39 µM. This IC50 is about 2.8-fold higher than that of the compound before.

Consider `CCCC[C@H]1C[C@@H]2[C@H](CC[C@]3(C)C(=O)CC[C@@H]23)[C@@]2(C)CCC(=O)C=C12`, for which the IC50 is 0.791 µM. `C[C@]12CCC(=O)C=C1C(CCc1ccccc1)=C[C@@H]1[C@@H]2CC[C@]2(C)C(=O)CC[C@@H]12`: the IC50 is 0.092 µM. For `CCCC1=C[C@@H]2[C@H](CC[C@]3(C)C(=O)CC[C@@H]23)[C@@]2(C)C=CC(=O)C=C12` the value was 0.1 µM. Turning to `C=C[C@@H]1C[C@@H]2[C@H](CC[C@]3(C)C(=O)CC[C@@H]23)[C@@]2(C)CCC(=O)C=C12`, it took 0.32 µM to reach half-maximal inhibition (IC50). Against the preceding compound, the IC50 is about 3.2-fold higher.

With `C[C@]12CCC(=O)C=C1C(Cc1ccccc1)=C[C@@H]1[C@@H]2CC[C@]2(C)C(=O)CC[C@@H]12`, the half-maximal inhibitory concentration (IC50) was 0.078 µM. Consider `CCCCCCCC1=C[C@@H]2[C@H](CC[C@]3(C)C(=O)CC[C@@H]23)[C@@]2(C)CCC(=O)C=C12`, for which the IC50 is 0.43 µM. This IC50 is about 5.5-fold higher than that of the compound before. For the compound `C[C@H]1C[C@@H]2[C@H](CC[C@]3(C)C(=O)CC[C@@H]23)[C@@]2(C)CCC(=O)C=C12`, the IC50 was 0.35 µM.

The compound `CCC1=C[C@@H]2[C@H](CC[C@]3(C)C(=O)CC[C@@H]23)[C@@]2(C)C=CC(=O)C=C12` showed an IC50 of 0.042 µM. Regarding `CCCCCC1=C[C@@H]2[C@H](CC[C@]3(C)C(=O)CC[C@@H]23)[C@@]2(C)CCC(=O)C=C12`, the IC50 was 0.22 µM.

`C[C@]12CCC(=O)C=C1C(c1ccccc1)=C[C@@H]1[C@@H]2CC[C@]2(C)C(=O)CC[C@@H]12` showed an IC50 of 0.2 µM. This IC50 and that of the compound before are within 1.5-fold of each other. For the compound `C[C@]12CCC(=O)C=C1[C@H](CCc1ccccc1)C[C@@H]1[C@@H]2CC[C@]2(C)C(=O)CC[C@@H]12`, the IC50 was 1050 µM. This IC50 is about 5200-fold higher than that of the compound before.

Turning to `C[C@]12CCC(=O)C=C1C(CCCCCc1ccccc1)=C[C@@H]1[C@@H]2CC[C@]2(C)C(=O)CC[C@@H]12`, the IC50 is 0.3 µM.

`C[C@]12CCC(=O)C=C1[C@@H](CCCCc1ccccc1)C[C@@H]1[C@@H]2CC[C@]2(C)C(=O)CC[C@@H]12`: the IC50 is 340 µM.

Take `C[C@]12C=CC(=O)C=C1C(Cc1ccccc1)=C[C@@H]1[C@@H]2CC[C@]2(C)C(=O)CC[C@@H]12`: the IC50 is 0.0929 µM. To `CC(C)[C@H]1C[C@@H]2[C@H](CC[C@]3(C)C(=O)CC[C@@H]23)[C@@]2(C)CCC(=O)C=C12` belongs 1.4 µM.

Consider `CC[C@H]1C[C@@H]2[C@H](CC[C@]3(C)C(=O)CC[C@@H]23)[C@@]2(C)CCC(=O)C=C12`, for which the IC50 was 0.26 µM. Compared with the last compound, the IC50 is about 5.4-fold lower. To `C[C@]12C=CC(=O)C=C1C(CCCc1ccccc1)=C[C@@H]1[C@@H]2CC[C@]2(C)C(=O)CC[C@@H]12` belongs 0.35 µM; to `C[C@]12CCC(=O)C=C1[C@H](c1ccccc1)C[C@@H]1[C@@H]2CC[C@]2(C)C(=O)CC[C@@H]12`, 1.7 µM. For `C#C[C@@H]1C[C@@H]2[C@H](CC[C@]3(C)C(=O)CC[C@@H]23)[C@@]2(C)CCC(=O)C=C12` the value was 1.9 µM; for `C[C@]12CCC(=O)C=C1[C@@H](c1ccccc1)C[C@@H]1[C@@H]2CC[C@]2(C)C(=O)CC[C@@H]12`, 1.1 µM. As for `C[C@]12CCC(=O)C=C1[C@@H](CCCCCc1ccccc1)C[C@@H]1[C@@H]2CC[C@]2(C)C(=O)CC[C@@H]12`, inhibition was half-maximal at 560 µM (IC50). To `C[C@]12C=CC(=O)C=C1C[C@@H](CCc1cccc([N+](=O)[O-])c1)[C@@H]1[C@@H]2CC[C@]2(C)C(=O)CC[C@@H]12` belongs 0.133 µM; to `CC(C)[C@@H]1C[C@@H]2[C@H](CC[C@]3(C)C(=O)CC[C@@H]23)[C@@]2(C)CCC(=O)C=C12`, 1.1 µM; to `C[C@]12C=CC(=O)C=C1C[C@@H](CCCc1ccc(N)cc1)[C@@H]1[C@@H]2CC[C@]2(C)C(=O)CC[C@@H]12`, 0.158 µM.

In turn, `C[C@]12CCC(=O)C=C1[C@@H](CCCc1ccccc1)C[C@@H]1[C@@H]2CC[C@]2(C)C(=O)CC[C@@H]12` gave an IC50 of 400 µM. For `CCC[C@H]1C[C@@H]2[C@H](CC[C@]3(C)C(=O)CC[C@@H]23)[C@@]2(C)CCC(=O)C=C12` the value was 0.39 µM; for `C[C@]12C=CC(=O)C=C1C(c1ccccc1)=C[C@@H]1[C@@H]2CC[C@]2(C)C(=O)CC[C@@H]12`, 0.54 µM.

`C[C@]12CCC(=O)C=C1[C@H](CCCCCc1ccccc1)C[C@@H]1[C@@H]2CC[C@]2(C)C(=O)CC[C@@H]12` had an IC50 of 450 µM. With `C[C@]12CCC(=O)C=C1[C@H](CCCc1ccccc1)C[C@@H]1[C@@H]2CC[C@]2(C)C(=O)CC[C@@H]12`, the IC50 is 290 µM.

In the case of `C[C@]12CCC(=O)C=C1C(CCCCc1ccccc1)=C[C@@H]1[C@@H]2CC[C@]2(C)C(=O)CC[C@@H]12`, half-maximal inhibition (IC50) required 0.28 µM. Turning to `C[C@]12CCC(=O)C=C1C(CCCc1ccccc1)=C[C@@H]1[C@@H]2CC[C@]2(C)C(=O)CC[C@@H]12`, 0.25 µM corresponded to half-maximal inhibition (IC50). Compound `C[C@]12CCC(=O)C=C1[C@H](Cc1ccccc1)C[C@@H]1[C@@H]2CC[C@]2(C)C(=O)CC[C@@H]12` gave an IC50 of 4 µM.
